Assay results: patent US4117117A, “Tridecapetide having gastrin effect” (Max Planck-Gesellschaft zur Forderung der Wissenschaften, priority 1976, dated 1978)

Columns and labels:
[1] = stability compared to natural minigastrin; details: as compared to the natural minigastrin
[2] = test system: secretion activity of the stomach and of the pancreas; test: gastrin activity (stimulation of the secretion activity of the stomach and of the pancreas)

For “L-leucyl-L-glutamyl-L-glutamyl-L-glutamyl-L-glutamyl-L-glutamyl-L-ananyl-L-tyrosyl-glycyl-L-tryptophyl-L-leucyl-L-asparagyl-L-phenylalanineamide [11-leucine-minigastrin]”, the stability [1] was “improved stability”, the gastrin activity [2] was “satisfactory” and the “stimulation of the secretion activity of the stomach and of the pancreas” value ([2]; just like naturally-occurring gastrin) was “causes stimulation”.
